# Measurements reported in patent publication US20130324725A1, “AMINOPYRIMIDINES USEFUL AS KINASE INHIBITORS” (VERTEX PHARMACEUTICALS INCORPORATED, priority 2007, published 2013).
# Where two headings read alike, the source gives them in different places.
# Tests used:
# Colo205 cells = experiment: Analysis of cell proliferation and viability; format: cell-based; conditions: Homo sapiens
# Method: Compounds were screened for their ability to inhibit cell proliferation and their effects on cell viability using Colo205 cells obtained from ECACC and using the assay shown below.
# Colo205 cells were seeded in 96 well plates and serially diluted compound was added to the wells in duplicate. Control groups included untreated cells, the compound diluent (0.1% DMSO alone) and culture medium without cells. The cells were then incubated for 72 or 96 hrs at 37 C in an atmosphere of 5% CO2/95% humidity.
# To measure proliferation, 3 h prior to the end of the experiment 0.5 μCi of 3H thymidine was added to each well. Cells were then harvested and the incorporated radioactivity counted on a Wallac microplate beta-counter. Cell viability was assessed using Promega CellTiter 96AQ to measure MTS conversion. Dose response curves were calculated using either Prism 3.0 (GraphPad) or SoftMax Pro 4.3.1 LS (Molecular Devices) software.
# Aurora-2 (Aurora A) = target: T1, Aurora-2 (Aurora A) (Homo sapiens, UniProt O14965); experiment: Aurora-2 (Aurora A) inhibition assay, coupled enzyme; format: biochemical; conditions: 400 μM ATP, 30° C.
# T1 sequence (O14965 1-403): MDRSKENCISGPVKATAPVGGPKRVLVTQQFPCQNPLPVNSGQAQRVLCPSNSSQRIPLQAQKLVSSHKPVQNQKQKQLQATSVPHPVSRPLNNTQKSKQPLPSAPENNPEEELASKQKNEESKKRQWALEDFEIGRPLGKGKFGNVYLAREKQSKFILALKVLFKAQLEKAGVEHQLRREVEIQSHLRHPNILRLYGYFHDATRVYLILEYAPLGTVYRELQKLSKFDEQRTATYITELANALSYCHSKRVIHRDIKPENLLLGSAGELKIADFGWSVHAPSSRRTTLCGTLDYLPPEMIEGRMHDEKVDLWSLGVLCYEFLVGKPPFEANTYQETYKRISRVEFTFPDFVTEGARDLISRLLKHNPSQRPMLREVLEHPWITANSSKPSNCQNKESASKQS
# Method: Compounds were screened for their ability to inhibit Aurora-2 using a standard coupled enzyme assay (Fox et al., Protein Sci., (1998) 7, 2249). Assays were carried out in a mixture of 100 mM Hepes (pH7.5), 10 mM MgCl2, 1 mM DTT, 25 mM NaCl, 2.5 mM phosphoenolpyruvate, 300 μM NADH, 30 μg/ml pyruvate kinase and 10 μg/ml lactate dehydrogenase. Final substrate concentrations in the assay were 400 μM ATP (Sigma Chemicals) and 570 μM peptide (Kemptide, American Peptide, Sunnyvale, Calif.). Assays were carried out at 30° C. and in the presence of 40 nM Aurora-2.
# An assay stock buffer solution was prepared containing all of the reagents listed above, with the exception of Aurora-2 and the test compound of interest. 55 μl of the stock solution was placed in a 96 well plate followed by addition of 2 μl of DMSO stock containing serial dilutions of the test compound (typically starting from a final concentration of 7.5 μM). The plate was preincubated for 10 minutes at 30° C. and the reaction initiated by addition of 10 μl of Aurora-2. Initial reaction rates were determined with a Molecular Devices SpectraMax Plus plate reader over a 10 minute time course. IC50 and Ki data were calculated from non-linear regression analysis using the Prism software package (GraphPad Prism version 3.0cx for Macintosh, GraphPad Software, San Diego Calif., USA).
# Aurora-1 (Aurora B) = Aurora-1 (Aurora B) (Homo sapiens, UniProt Q96GD4); experiment: Aurora-1 (Aurora B) inhibition assay (radiometric); format: biochemical; conditions: 800 μM ATP, 25° C.; read-out: Ki, Aurora-1 (Aurora B) radiometric assay (sentence prints Aurora A)
# Aurora-1 (Aurora B), sequence (Q96GD4 whole entry): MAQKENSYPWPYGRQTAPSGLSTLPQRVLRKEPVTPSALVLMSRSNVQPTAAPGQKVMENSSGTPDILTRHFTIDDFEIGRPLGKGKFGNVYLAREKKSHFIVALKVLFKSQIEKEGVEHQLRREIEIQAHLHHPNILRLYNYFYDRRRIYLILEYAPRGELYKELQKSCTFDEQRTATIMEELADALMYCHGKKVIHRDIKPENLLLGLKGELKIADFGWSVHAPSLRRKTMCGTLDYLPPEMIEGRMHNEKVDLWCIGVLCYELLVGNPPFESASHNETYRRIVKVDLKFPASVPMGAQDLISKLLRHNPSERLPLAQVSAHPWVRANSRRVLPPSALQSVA
# Method: An assay buffer solution was prepared which consisted of 25 mM HEPES (pH 7.5), 10 mM MgCl2, 0.1% BSA and 10% glycerol. A 22 nM Aurora-B solution, also containing 1.7 mM DTT and 1.5 mM Kemptide (LRRASLG), was prepared in assay buffer. To 22 μL of the Aurora-B solution, in a 96-well plate, was added 2 μl of a compound stock solution in DMSO and the mixture allowed to equilibrate for 10 minutes at 25° C. The enzyme reaction was initiated by the addition of 16 μl stock [γ-^33P]-ATP solution ([…]) prepared in assay buffer, to a final assay concentration of 800 μM. The reaction was stopped after 3 hours by the addition of 16 μL 500 mM phosphoric acid and the levels of ^33P incorporation into the peptide substrate were determined by the following method.
# A phosphocellulose 96-well plate (Millipore, Cat no. MAPHNOB50) was pre-treated with 100 μL of a 100 mM phosphoric acid prior to the addition of the enzyme reaction mixture (40 μL). […] Levels of non-enzyme catalyzed background radioactivity were determined by adding 16 μL of the 500 mM phosphoric acid to control wells, containing all assay components (which acts to denature the enzyme), prior to the addition of the [γ-^33P]-ATP solution. Levels of enzyme catalyzed ^33P incorporation were calculated by subtracting mean background counts from those measured at each inhibitor concentration. […]
# [1] = target: T2, T315I mutant of human Abl (Homo sapiens, UniProt P00519, T315I); experiment: Mutant Abl kinase (T315I) activity inhibition assay; format: biochemical; conditions: at Upstate Cell Signaling Solutions
# T2 construct: purchased Upstate Cell Signaling Solutions (Dundee, UK), assay run at the vendor
# Method: Compounds were screened for their ability to inhibit the T315I mutant form of human Abl at Upstate Cell Signaling Solutions (Dundee, UK). In a final reaction volume of 25 μl, the T315I mutant of human Abl (5-10 mU) was incubated with 8 mM MOPS pH 7.0, 0.2 mM EDTA, 50 μM EAIYAAPFAKKK, 10 mM Mg Acetate, [γ-^33P-ATP](specific activity approx. 500 cpm/pmol, […] final assay concentration) and the test compound of interest at final concentrations over the range […]. The reaction was initiated by the addition of the MgATP mix. After incubation for 40 minutes at room temperature, the reaction was stopped by the addition of 5 μl of a 3% phosphoric acid solution. 10 μl of the reaction was then spotted onto a P30 filtermat and washed three times for 5 minutes in 75 mM phosphoric acid and once in methanol prior to drying and scintillation counting. […]
# [2] = COLO 205, 72 hours, read-out: IC50 values after 72 hours
# [3] = COLO 205, 96 hours, read-out: IC50 values after 96 hours
Structure (SMILES),IC50 (Colo205 cells; [2]),further results
Cc1cc(Nc2cc(N3CCN(C4CCCCC4)CC3)nc(Sc3cc(F)c4nc(C)ccc4c3)n2)[nH]n1 [Compound I-1],50 to 100 nM,–
Cc1cc(Nc2cc(N3CCN(C(C)(C)CF)CC3)nc(Sc3ccc4c(c3)CN(CC(F)(F)F)C4=O)n2)[nH]n1 [Compound I-2],50 to 100 nM,–
Cc1cc(Nc2cc(N3CCN(C4CCCCC4)CC3)nc(Sc3ccc4nc(C(F)(F)F)n(C)c4c3)n2)[nH]n1 [Compound I-3],< 50 nM,IC50 (Colo205 cells; [3]): < 50 nM
Cc1cc(Nc2cc(N3CCN(C4CC4)CC3)nc(Sc3ccc4nc(C(F)(F)F)[nH]c4c3)n2)[nH]n1 [Compound I-4],50 to 100 nM,–
Cc1cc(Nc2cc(N3CCN(C4CC4)CC3)nc(Sc3ccc4nc(CC(F)(F)F)n(C)c4c3)n2)[nH]n1 [Compound I-5],< 50 nM,–
Cc1cc(Nc2cc(N3CCN(C(C)(C)CF)CC3)nc(Sc3ccc4nc(CC(F)(F)F)n(C)c4c3)n2)[nH]n1 [Compound I-7],< 50 nM,–
Cc1cc(Nc2cc(N3CCN(C4CCCCC4)CC3)nc(Sc3ccc4nc(C(F)(F)F)[nH]c4c3)n2)[nH]n1 [Compound I-8],< 50 nM,–
Cc1cc(Nc2cc(N3CCN(CC(F)(F)F)CC3)nc(Sc3ccc4nc(C(F)(F)F)[nH]c4c3)n2)[nH]n1 [Compound I-9],–,Ki (Aurora-2 (Aurora A)): ≤ 1 nM; Ki (Aurora-1 (Aurora B)): 20 to 50 nM
Cc1cc(Nc2cc(N3CCN(C4CC4)CC3)nc(Sc3ccc4nc(C(F)(F)F)n(C)c4c3)n2)[nH]n1 [Compound I-10],50 to 100 nM,IC50 (Colo205 cells; [3]): < 50 nM
Cc1cc(Nc2cc(N3CCN(C4CCN(C)CC4)CC3)nc(Sc3ccc4nc(C(F)(F)F)n(C)c4c3)n2)[nH]n1 [Compound I-12],< 50 nM,–
"Cc1cc(Nc2cc(N3CCN(C4CCN(C)CC4)CC3)nc(Sc3cc(F)c4nc(C)ccc4c3)n2)[nH]n1 [Compound I-13, 2-(8-fluoro-2-methylquinolin-6-ylthio)-N-(3-methyl-1H-pyrazol-5-yl)-6-(4-(1-methylpiperidin-4-yl)piperazin-1-yl)pyrimidin-4-amine]",< 50 nM,–
Cc1cc(Nc2cc(N3CCN(C(C)(C)C)CC3)nc(Sc3ccc4c(cnn4C)c3)n2)[nH]n1 [Compound I-16],–,IC50 (Colo205 cells; [3]): < 50 nM
Cc1cc(Nc2cc(N3CCN(C4CCN(C)CC4)CC3)nc(Sc3ccc4nc(C(F)(F)F)ccc4c3)n2)[nH]n1 [Compound I-17],50 to 100 nM,Ki [1]: < 25 nM
Cc1cc(Nc2cc(N3CCN(C(C)(C)C)CC3)nc(Sc3ccc4ncn(C)c4c3)n2)[nH]n1 [Compound I-18],–,IC50 (Colo205 cells; [3]): < 50 nM
Cc1cc(Nc2cc(N3CCN(C4CCCCC4)CC3)nc(Sc3ccc4nc(CC(F)(F)F)n(C)c4c3)n2)[nH]n1 [Compound I-19],< 50 nM,–
Cc1cc(Nc2cc(N3CCN(C4CC4)CC3)nc(Sc3ccc4c(c3)CN(CC(F)(F)F)C4=O)n2)[nH]n1 [Compound I-20],< 50 nM,–
Cc1cc(Nc2cc(N3CCN(CC(F)(F)F)CC3)nc(Sc3ccc4c(c3)CN(CC(F)(F)F)C4=O)n2)[nH]n1 [Compound I-24],50 to 100 nM,–
Cc1cc(Nc2cc(N3CCN(C4CCCCC4)CC3)nc(Sc3ccc4c(c3)CN(CC(F)(F)F)C4=O)n2)[nH]n1 [Compound I-25],< 50 nM,–
